Test results taken from the supplement of paper PMC10307832.

Legend:
Experiment in all cases: relative viability (nuclei count vs DMSO), 5 days (fraction); higher = more cells survive
[1] = compound: CCOC(=O)CCNc1cc(N2CCc3ccccc3CC2)nc(-c2ccccn2)n1 [GSK-J4] + CS(=O)(=O)CCNCc1ccc(-c2ccc3ncnc(Nc4ccc(OCc5cccc(F)c5)c(Cl)c4)c3c2)o1 [Lapatinib] (partner 2 µM)
How it was run: (§1)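 For relative viability, nuclei counts in treated wells were divided by those in vehicle wells. Lung cancer cell lines had been pin-tool dosed in 1536-well plates the day after seeding and cultured for 5 days, then fixed and stained in one step (final 0.05% Triton X-100, 1% formaldehyde, 1 ug/ml Hoechst) and imaged at 4×. Doses were one drug alone or a fixed anchor-drug dose plus five library-drug doses (not always all listed) in √10 steps, and values are duplicate-plate medians.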

[2] = compound: CN1CCC(CC1)OC2=CC(=C(C=C2)NC3=NC=C4C(=N3)N(C(=O)N4C)C5CCCC5)OC [AZ3146] + CCNC(=O)c1noc(-c2cc(C(C)C)c(O)cc2O)c1-c1ccc(CN2CCOCC2)cc1 [Luminespib] (partner 0.01 µM)
How it was run: as §1

[3] = compound: CCOC(=O)CCNc1cc(N2CCc3ccccc3CC2)nc(-c2ccccn2)n1 [GSK-J4] + CC1(C)CCC(c2ccc(Cl)cc2)=C(CN2CCN(c3ccc(C(=O)NS(=O)(=O)c4ccc(N[C@H](CCN5CCOCC5)CSc5ccccc5)c(S(=O)(=O)C(F)(F)F)c4)cc3)CC2)C1 [Navitoclax] (partner 0.5 µM)
How it was run: as §1

[4] = compound: CN1CCC(CC1)OC2=CC(=C(C=C2)NC3=NC=C4C(=N3)N(C(=O)N4C)C5CCCC5)OC [AZ3146] + Cc1nc(Nc2ncc(C(=O)Nc3c(C)cccc3Cl)s2)cc(N2CCN(CCO)CC2)n1 [Dasatinib] (partner 0.075 µM)
How it was run: as §1

Row | Cell Line | relative viability ([1]; first compound 0.5 µM) | relative viability ([1]; first compound 1.581 µM) | relative viability ([1]; first compound 5 µM) | relative viability ([1]; first compound 15.81 µM) | relative viability ([1]; first compound 50 µM) | relative viability ([2]; first compound 0.08 µM) | relative viability ([2]; first compound 0.253 µM) | relative viability ([2]; first compound 0.8 µM) | relative viability ([2]; first compound 2.53 µM) | relative viability ([2]; first compound 8 µM) | relative viability ([3]; first compound 0.5 µM) | relative viability ([3]; first compound 1.581 µM) | relative viability ([3]; first compound 5 µM) | relative viability ([3]; first compound 15.81 µM) | relative viability ([3]; first compound 50 µM) | relative viability ([4]; first compound 0.08 µM) | relative viability ([4]; first compound 0.253 µM) | relative viability ([4]; first compound 0.8 µM) | relative viability ([4]; first compound 2.53 µM) | relative viability ([4]; first compound 8 µM)
1 | NCI-H2023 | 0.827 | 0.0641 | 0.727 | 0.641 | 0.474 | 0.657 | 0.774 | 0.78 | 0.593 | 0.153 | 0.921 | 0.976 | 1.08 | 0.991 | 0.915 | 0.57 | 0.584 | 0.472 | 0.498 | 0.147
2 | NCI-H647 | 1.01 | 0.954 | 0.94 | 0.977 | 0.815 | 0.186 | 0.178 | 0.244 | 0.149 | 0.269 | 1.02 | 0.737 | 0.981 | 1.06 | 1.09 | 0.214 | 0.186 | 0.178 | 0.216 | 0.138
3 | NCI-H1975 | 0.873 | 0.971 |  | 0.929 | 1.19 | 0.215 | 0.173 | 0.162 | 0.204 | 0.257 | 1.05 | 1.11 |  | 1.04 | 1.15 | 0.358 | 0.338 | 0.346 | 0.321 | 0.198
4 | BEN | 0.657 | 0.622 |  | 0.764 | 0.635 |  | 0.224 | 0.637 | 0.282 | 0.269 | 0.0769 | 0.0597 |  | 0.0496 | 0.042 |  | 0.228 | 0.353 | 0.322 | 0.362
5 | NCI-H1437 | 0.851 | 0.693 | 0.713 | 0.727 | 0.17 | 1.12 | 1.15 | 1.11 | 1.15 | 1.07 | 1.03 | 1.03 | 1.03 | 1.08 | 0.319 | 0.327 | 0.373 | 0.447 | 0.368 | 0.51
6 | NCI-H1666 | 0.576 |  | 0.7 | 0.567 | 0.382 | 1.08 | 1.04 | 1 | 1.04 | 0.763 | 1.08 |  | 1.19 | 0.918 | 0.472 | 0.799 | 0.818 | 0.74 | 0.764 | 0.596
7 | NCI-H2085 | 0.696 | 0.679 | 0.77 | 0.615 | 0.397 | 0.417 | 0.416 | 0.394 | 0.427 | 0.608 | 0.971 | 1.12 | 1.13 | 1.09 | 0.999 | 0.256 | 0.231 | 0.266 | 0.257 | 0.208
8 | LXF-289 | 0.899 | 0.821 | 0.907 | 0.934 | 0.866 | 0.643 | 0.691 | 0.705 | 0.772 | 0.787 | 0.864 | 0.838 | 0.955 | 0.933 | 0.867 | 0.276 | 0.241 | 0.172 | 0.227 | 0.18
9 | NCI-H322M | 0.533 | 0.623 | 0.842 | 0.514 | 0.528 | 0.88 | 0.847 | 0.715 | 0.924 | 0.787 | 1.18 | 1.18 | 1.29 | 1.05 | 1.17 | 0.236 | 0.248 | 0.24 | 0.251 | 0.285
10 | LU99A | 0.992 | 0.79 | 0.842 | 0.921 | 0.607 | 0.247 | 0.236 | 0.327 | 0.262 | 0.477 | 0.788 | 0.746 | 0.852 | 0.814 | 0.633 | 0.645 | 0.528 | 0.464 | 0.56 | 0.606
11 | PC-14 | 0.351 | 0.228 | 0.344 | 0.249 | 0.323 | 0.162 | 0.169 |  | 0.252 | 0.159 | 0.939 | 1.02 | 0.948 | 1.02 | 0.926 | 0.271 | 0.268 | 0.259 | 0.229 | 0.0367
12 | HARA | 0.729 | 0.706 |  | 0.699 | 0.554 | 0.895 | 0.823 | 0.711 | 0.816 | 0.512 | 1.16 | 0.827 |  | 1.15 | 0.916 | 0.274 | 0.211 | 0.254 | 0.217 | 0.302
13 | NCI-H1944 | 0.8 | 0.795 | 0.78 | 0.665 | 0.787 | 0.617 | 0.786 | 0.777 | 0.906 | 1.06 | 1.06 | 0.953 | 1.15 | 0.913 | 1 | 0.171 | 0.194 | 0.214 | 0.239 | 0.229
14 | NCI-H1650 | 0.751 | 0.174 | 0.731 | 0.634 | 0.327 | 0.214 | 0.201 | 0.185 | 0.189 | 0.186 | 1.07 | 0.916 | 1.33 | 0.995 | 0.565 | 0.318 | 0.315 | 0.37 | 0.265 | 0.225
15 | LK-2 | 1.04 | 0.905 | 1.12 | 0.646 | 0.885 | 0.22 | 0.194 | 0.257 | 0.151 | 0.203 | 0.884 | 0.838 | 0.874 | 0.829 | 1.05 | 0.376 | 0.218 | 0.279 | 0.25 | 0.322
